Test results taken from US7875601B2, “Cancer treatment with epothilones” (Novartis AG, priority 1998, dated 2011).
Marks after values point to notes of the source that are not given here.

Tests used:
[1] = test system: human HCT-15 colon carcinoma; assay: Antitumor effect against s.c. transplanted HCT-15 tumors; format: in vivo, female BALB/c nude mice
Text: Human colorectal adenocarcinoma cell line HCT-15 (ATCC CCL 225) is from the American Type Culture Collection (Rockville, Md., USA), and the cells are cultivated in vitro as recommended by the supplier. HCT-15 is an epithelial-like cell line. (Cancer Res. 39: 1020-25 [1979]) that is multi-drug resistant by virtue of over-expression of P-glycoprotein (P-gp, gp170, MDR-1;Anticancer Res. 11: 1309-12 [1991]; J. Biol. Chem. 264: 18031-40 [1989]; Int. J. Cancer 1991; 49: 696-703 [1991]) and glutathione-dependent resistance mechanisms (Int. J. Cancer 1991; 49: 688-95 [1991]).
(§1) Female or male BALB/c nu/nu (nude) mice are kept under sterile conditions (10 to 12 mice per Type III cage) with free access to food and water. Mice weigh between 20 and 25 grams at the time of tumor implantation. Tumors are established by subcutaneous injection of cells (minimum 2×10^6 cells in 100 μl PBS or medium) in carrier mice (4-8 mice per cell line). The resulting tumors are serially passaged for a minimum of three consecutive transplantations prior to start of treatment. Tumor fragments (approx. 25 mg) are implanted s.c. into the left flank of animals with a 13-gauge trocar needle while the mice are exposed to Forene (Abbott, Switzerland) anesthesia.
(§2) Tumor growth and body weights are monitored once or twice weekly. All treatments are administered intravenously (i.v.) and are initiated when a mean tumor volume of approximately 100 to 250 mm^3 is attained, depending upon the tumor type. Tumor volumes are determined using the formula […] (see Cancer Chemother. Pharmacol. 24:148-154, [1989]). Treatments with epothilone B vary the dose and the frequency of administration. Comparator agents are administered according to previously determined optimal treatment regimens. In addition to presenting changes in tumor volumes over the course of treatment, antitumor activity is expressed as T/C % (mean increase of tumor volumes of treated animals divided by the mean increase of tumor volumes of control animals multiplied by 100). Tumor. regression (%) represents the smallest mean tumor volume compared to the mean tumor volume at the start of treatment, according to the formula Regression (%)=(1−Vend/Vstart)×100(Vend=final mean tumor volume, Vstart=mean tumor volume at the start of treatment. Any animals in which the tumor has reached a size exceeding approximately 1.5 to 2.5 cm^3 are sacrificed. Details can be found below.
Tumor volumes are used as the primary indicator of activity of antitumor agents used alone or in combination, and changes in body weights are measured as an indicator of treatment tolerability.

[2] = test system: human COLO 205 colon tumors; format: in vivo, female BALB/c nude mice; conditions: 75 mg/kg, day 32
Description: as §1, §2

KB-8511 = KB-8511 vs KB-31; cited from earlier work
[3] = test system: KB-8511 (Epidermoid, MDR); assay: Antiproliferative assay, KB-8511; format: cell-based, human; conditions: KB-8511 vs parental line
Description: The human epidermal (mouth) carcinoma cell line KB-8511 (a P-gp over-expressing cell line derived from the epidermoid (mouth) KB-31 carcinoma cell line) is obtained from Dr. R. M. Baker, Roswell Park Memorial Institute (Buffalo, N.Y., USA) (for description see Akiyama et al., Somat. Cell. Mol. Genetics 11, 117-126 (1985) and Fojo A., et al., Cancer Res. 45, 3002-3007 (1985)) and is cultured as previously described (Meyer, T., et al., Int. J. Cancer 43 851-856 (1989)).
Antiproliferative assays are performed as previously described (Int. J. Cancer 43, 851-6 (1989)). Briefly, cells are seeded at 1.5×10^3 cells/well into 96-well microtiter plates and incubated overnight. Compounds are added in serial dilutions on day 1. The plates are then incubated for an additional 2 to 5 days, allowing for at least one cell doubling (cell line dependent), after which the cells are fixed with 3.3% v/v glutaraldehyde, washed with water and stained with 0.05% w/v methylene blue. After washing, the dye is eluted with 3% v/v HCl and the optical density measured at 665 nm with a SpectraMax 340 (Bucherer, Basel, Switzerland). IC50 values are determined by a computerized system (SoftPro, Bucherer, Basel, Switzerland) using the formula (OD test−OD start)/(OD control−OD start)×100. IC50 is defined as the drug concentration which leads to 50% of cells per well compared to control cultures (100%) at the end of incubation period.

[4] = 75 mg/kg, i.v., on days 14 and 21
[5] = 75 mg/kg, i.v., on days 14 and 21, mean ± SEM

Question: Which Regression [1, 4] does the source give for O=c1[nH]cc(F)c(=O)[nH]1 [5-fluorouracil, reference compound] here?
Answer: The Regression was “none”.

Question: And the T/C [1, 4]?
Answer: Its T/C is 88%.

Question: And the “% Body Weight Change” value [1, 5]?
Answer: Its value is 9 ± 4%.

Question: What about the “D Body Weight” value [1, 5] of the same compound?
Answer: The value was 2.0 ± 0.7 g.

Question: And the “D Tumor Volume (mm^3)” value [1, 5]?
Answer: The value was 1654 ± 824 mm^3.

Question: What about the deaths ([1]; two 75 mg/kg administrations) of the same compound?
Answer: The deaths was 50%.

Question: And the T/C ([2]; i.v. every 7 days (days 14, 21, 28))?
Answer: Its T/C is 18%.

Question: What about the Regression ([2]; i.v. every 7 days) of the same compound?
Answer: Its Regression is “none”.

Question: What about the “Δ Tumor Volume (mm^3)” value ([2]; i.v. every 7 days) of the same compound?
Answer: The value was 62 ± 12 mm^3.

Question: For COc1cc2c(c(OC)c1OC)-c1ccc(OC)c(=O)cc1[C@@H](NC(C)=O)CC2 [colchicine], which “relative resistance when compared with the KB-31 cells” value (KB-8511) is on record?
Answer: The value was roughly 40 fold.

Question: Which “relative resistance, IC50 (resistant line)/IC50 (parental line)” value [3] does the source give for CC(=O)O[C@H]1C(=O)[C@@]2(C)[C@H]([C@H](OC(=O)c3ccccc3)[C@]3(O)C[C@H](OC(=O)[C@H](O)[C@@H](NC(=O)c4ccccc4)c4ccccc4)C(C)=C1C3(C)C)[C@]1(OC(C)=O)CO[C@@H]1C[C@@H]2O [paclitaxel, reference compound] here?
Answer: Its value is “(343)^a”.
